Data from ChEMBL document CHEMBL1125302, “Prodrugs of nitroxyl as inhibitors of aldehyde dehydrogenase” (J Med Chem, 1992).
Calls of active or inactive are those of the source. The calls are words filed in the database; no cut-off is given here.

How the values were obtained:
[1] = Inhibitory activity against porcine […] dehydrogenase; Active; settings: Sus scrofa
[2] = In vitro inhibitory activity against yeast […] dehydrogenase; Active; settings: Saccharomyces cerevisiae

| Activity [1] | Activity [2] | SMILES |
| --- | --- | --- |
| Active | Active | CC(=O)ON(C(=O)OC(C)(C)C)S(=O)(=O)c1ccccc1 |
| Active |  | N#CN(OC(=O)c1ccccc1)C(=O)c1ccccc1 |
| Active | Active | CC(C)(C)OC(=O)N(OC(=O)c1ccccc1)S(=O)(=O)c1ccccc1 |
